{"source": "patent US20260294770A1", "about": "“FORMULATIONS OF NARINGENIN” (DEBUT BIOTECHNOLOGY, INC., priority 2023, published 2026)", "key": {"KRT10": {"test_system": "KRT10", "test": "Upregulation of gene expression and/or activity, 1% naringenin: KRT10", "excerpt": "(§1) In certain embodiments, administration of a composition comprising naringenin leads to up-regulation of LCE5A, KRT77, ALOXE3, KRT1, HPGD, MUCL1, CASP14, WFDC12, KRT10, DNASE1L2, IL37, SERPINB12, HAL, UPK1A, CALML5, LCE2B, and/or MIR205. In certain embodiments, administration of a composition comprising naringenin leads to down-regulation of CCL11, CSF2, IL23A, IL11, BMP6, IL13RA2, C2CD4A, NR4A2, C2CD4B, FGF2, FARP4, GDF15, THBS1, HSPA1A, PTGS2, and/or DKK1. Tables 10 and 11 provide data for upregulation and downregulation respectively of certain genes after administration of compositions comprising 1% naringenin.\nKeratin 10 (KRT10) is also involved in keratin production. Keratin is involved in increasing the barrier strength and resilience of the skin. Keratin 10 is produced in keratinocytes in the outer layer of the skin (the epidermis). In the fluid-filled space inside these cells (the cytoplasm), the keratin 10 protein partners with a similar protein, keratin 1 (produced from the KRT1 gene), to form molecules called keratin intermediate filaments. These filaments assemble into strong networks that provide strength and resiliency to the skin and protect it from being damaged by friction and other everyday physical stresses. […]"}, "IL37": {"test_system": "IL37", "test": "Upregulation of gene expression and/or activity, 1% naringenin: IL37", "excerpt": "as §1"}, "MIR205": {"test_system": "MIR205", "test": "Upregulation of gene expression and/or activity, 1% naringenin: MIR205", "excerpt": "as §1\nMicroRNA 205 (MIR205) plays a role in clearance of damaged cells. In certain embodiments, administration of compositions comprising naringenin leads to upregulation of MIR205, which leads to increase clearance of damaged cells. This increase in clearance of damaged cells leads to enhancement in cell turnover and/or recycling, which results in an improvement in anti-aging effect. […] In certain embodiments, the administration of composition comprising naringenin results in at least about 2 to about 10-fold upregulation of expression and/or activity of MIR205. In certain embodiments, the administration of composition comprising naringenin results in at least about five (5) fold upregulation of expression and/or activity of MIR205."}, "IL23A": {"test_system": "IL23A", "test": "Downregulation of gene expression and/or activity, 1% naringenin: IL23A", "excerpt": "as §1\nInterleukin 23A (1L23A) plays a role in the inflammatory pathway. In certain embodiments of the invention, downregulation of IL23A leads to an anti-inflammatory activity. In certain embodiments, the administration of composition comprising naringenin results in at least about 10 to about 20-fold downregulation of expression and/or activity of 1L23A. In certain embodiments, the administration of composition comprising naringenin results in at least about fifteen (15) fold downregulation of expression and/or activity of IL23A."}, "BMP6": {"test_system": "BMP6", "test": "Downregulation of gene expression and/or activity, 1% naringenin: BMP6", "excerpt": "as §1\nBone morphogenetic protein 6 (BMP6) plays a role in wound healing. The protein encoded by this gene is a member of the TGFβ superfamily. Bone morphogenetic proteins are known for their ability to induce the growth of bone and cartilage. BMP6 may induce all osteogenic markers in mesenchymal stem cells. In certain embodiments, the administration of compositions comprising naringenin leads to downregulation of expression and/or activity of BMP6. […] In certain embodiments, this may also lead to anti-aging effect for the skin. In certain embodiments, the administration of composition comprising naringenin results in at least about 2 to about 20-fold downregulation of expression and/or activity of BMP6. […]"}, "LCE2B": {"test_system": "LCE2B", "test": "Upregulation of gene expression and/or activity, 1% naringenin: LCE2B", "excerpt": "as §1\nLate cornified envelope 2B (LCE2B) plays a role in the formation of precursors of the cornified envelope of the stratum corneum. It also leads to improved formation of outer skin protective barrier. In certain embodiments, the administration of composition comprising naringenin results in upregulation of LCE2B, which has a role in enhancing the outer skin protective barrier. In certain embodiments, the administration of composition comprising naringenin results in at least about 5 to about 20-fold upregulation of expression and/or activity of LCE2B. In certain embodiments, the administration of composition comprising naringenin results in at least about five (5) fold upregulation of expression and/or activity of LCE2B."}, "DKK1": {"test_system": "DKK1", "test": "Downregulation of gene expression and/or activity, 1% naringenin: DKK1", "conditions": "negative = downregulation", "excerpt": "as §1"}, "HPGD": {"test_system": "HPGD", "test": "Upregulation of gene expression and/or activity, 1% naringenin: HPGD", "excerpt": "as §1\nHydroxyprostaglandin dehydrogenase (HPGD) has an anti-inflammatory function. In particular, it is involved in degradation of molecules that lead to inflammatory signaling. For example, HPGD is involved in degradation of prostaglandin, which is involved in inflammatory signaling pathway. In certain embodiments, upregulation of expression and/or activity of HPGD leads to an anti-inflammatory effect. In certain embodiments, upregulation of HPGD leads to increase in degradation of signaling molecules that are involved in inflammation. Thus, the upregulation of HPGD leads to reduced inflammation. In certain embodiments, the administration of composition comprising naringenin results in at least about 5 to about 20-fold upregulation of expression and/or activity of HPGD. […]"}, "IL-6": {"test_system": "IL-6", "test": "IL-6 concentration in stimulated (stressed) normal human epidermal keratinocytes (ELISA)", "assay_type": "cell-based", "conditions": "for IL-6 concentration: LPS + Poly:IC stressed NHEK, stimulated control 1124.6", "excerpt": "Normal Human Epidermal Keratinocytes (NHEK) were stressed with a cocktail of lipopolysaccharide (LPS) and Polyinosinic-polycytidylic acid sodium salt (Poly:IC), external aggressors capable of inducing an inflammatory response. Stressed cells were subsequently treated with test articles and reduction in inflammatory markers was measuring by ELISA. Tables 19 and 20, provided below, discloses data for TNFα and IL-6 concentrations, respectively, in stressed normal human epidermal keratinocytes."}, "[1]": {"conditions": "cited from earlier work"}}, "data": [{"smiles": "O=C1C[C@@H](c2ccc(O)cc2)Oc2cc(O)cc(O)c21", "note": "[naringenin, (2S)-5,7-Dihydroxy-2-(4-hydroxyphenyl)-2,3-dihydro-4H-1-benzopyran-4-one]", "values": [{"measurement": "Fold-increase in expression and/or activity of KRT10", "setting": "KRT10", "result": "~6", "unit": "fold"}, {"measurement": "Fold-increase in expression and/or activity of IL37", "setting": "IL37", "result": 11, "unit": "fold"}, {"measurement": "Fold-increase in expression and/or activity of MIR205", "setting": "MIR205", "result": "~6", "unit": "fold"}, {"measurement": "fold downregulation in expression and/or activity of IL23A", "setting": "IL23A", "result": "~18", "unit": "fold"}, {"measurement": "fold downregulation in expression and/or activity of BMP6", "setting": "BMP6", "result": "~11", "unit": "fold"}, {"measurement": "Fold-increase (downregulation table) BMP6", "setting": "BMP6; negative = downregulation", "result": "−11", "unit": "fold"}, {"measurement": "Fold-increase in expression and/or activity of LCE2B", "setting": "LCE2B", "result": "~9", "unit": "fold"}, {"measurement": "Fold-increase (downregulation table) DKK1", "setting": "DKK1", "result": "−5", "unit": "fold"}, {"measurement": "Fold-increase in expression and/or activity of HPGD", "setting": "HPGD", "result": "~10", "unit": "fold"}, {"measurement": "IL-6 concentration", "setting": "IL-6; 0.0001% naringenin, p-value 0.0001", "result": 395.8, "unit": "pg/mL"}, {"measurement": "IL-6 concentration", "setting": "IL-6; 0.0045% naringenin, p-value 0.0029", "result": 42.0, "unit": "pg/mL"}, {"measurement": "IL-6 concentration", "setting": "IL-6; 0.007% naringenin, p-value 0.0030", "result": 50.0, "unit": "pg/mL"}, {"measurement": "IL-6 concentration", "setting": "IL-6; 0.01% naringenin, p-value 0.0035", "result": 76.6, "unit": "pg/mL"}, {"measurement": "inhibition at 0.0001 %", "setting": "IL-6; Homo sapiens, NHEK, 0.0001% naringenin, vs stimulated control, p-value 0.0001, read-out: IL-6 % Reduction vs Treated", "result": 64.8, "unit": "%"}, {"measurement": "inhibition at 0.0045 %", "setting": "IL-6; Homo sapiens, NHEK, 0.0045% naringenin, vs stimulated control, p-value 0.0029, read-out: IL-6 % Reduction vs Treated", "result": 96.3, "unit": "%"}, {"measurement": "inhibition at 0.007 %", "setting": "IL-6; Homo sapiens, NHEK, 0.007% naringenin, vs stimulated control, p-value 0.0030, read-out: IL-6 % Reduction vs Treated", "result": 95.6, "unit": "%"}, {"measurement": "inhibition at 0.01 %", "setting": "IL-6; Homo sapiens, NHEK, 0.01% naringenin, vs stimulated control, p-value 0.0035, read-out: IL-6 % Reduction vs Treated", "result": 93.2, "unit": "%"}, {"measurement": "Reduction of IL-6 (in words)", "setting": "IL-6; stressed keratinocytes", "result": "to non-stressed levels"}, {"measurement": "Safety on oral ingestion", "setting": "[1]", "result": "generally considered safe for oral ingestion"}]}]}
